Source: ChEMBL document CHEMBL1136730, “Antiestrogens and selective estrogen receptor modulators as multifunctional medicines. 2. Clinical considerations and new agents” (J Med Chem, 2003)
The source made the active and inactive calls. The calls are words filed in the database; no cut-off is given here.

Experiments:
Estrogen receptor = molecular target: T1, Estrogen receptor (Homo sapiens, UniProt P03372); assay: Binding affinity for Estrogen receptor alpha
T1 sequence (P03372 whole entry): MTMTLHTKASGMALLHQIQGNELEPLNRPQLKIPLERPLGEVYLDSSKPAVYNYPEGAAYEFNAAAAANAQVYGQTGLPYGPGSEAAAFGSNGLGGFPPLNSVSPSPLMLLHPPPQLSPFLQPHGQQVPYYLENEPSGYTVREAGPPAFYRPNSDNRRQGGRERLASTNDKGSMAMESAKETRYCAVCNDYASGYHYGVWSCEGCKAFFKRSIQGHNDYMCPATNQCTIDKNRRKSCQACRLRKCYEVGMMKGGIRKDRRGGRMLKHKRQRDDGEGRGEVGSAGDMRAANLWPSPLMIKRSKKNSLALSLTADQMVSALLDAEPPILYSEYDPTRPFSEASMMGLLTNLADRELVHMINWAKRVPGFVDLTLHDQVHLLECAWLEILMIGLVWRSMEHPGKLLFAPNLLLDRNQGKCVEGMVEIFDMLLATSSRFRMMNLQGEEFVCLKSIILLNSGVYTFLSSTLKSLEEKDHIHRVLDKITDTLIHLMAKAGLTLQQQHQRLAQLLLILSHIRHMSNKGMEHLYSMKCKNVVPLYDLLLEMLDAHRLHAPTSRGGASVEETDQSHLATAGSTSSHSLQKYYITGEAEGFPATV

Rattus norvegicus = assay: Effect on stimulation of immature rat uterus in dose limit of 0.1 and 10 mg/kg; No effect but lowers circulating cholesterol; assay type: functional, organism-based; set-up: dose 10 mg/kg
Homo sapiens [1] = species on record: Homo sapiens; assay: Effect on spine fractures in postmenopausal women with osteoporosis; assay type: functional
[2] = Effect on bone density of totalhip was determined in postmenopausal women; assay type: functional, Homo sapiens, Bone element
Homo sapiens [3] = species on record: Homo sapiens; assay: Effect on bone density in the lumber spine was determined in postmenopausal women; assay type: functional

| SMILES | Ki (Estrogen receptor) [pM] | Effect (Rattus norvegicus) | Decrease (Homo sapiens [1]) [%] | Increase [2] [%] | Increase (Homo sapiens [3]) [%] | bioavailability (in vivo) [%] |
| --- | --- | --- | --- | --- | --- | --- |
| Oc1ccc2c(c1)CN(c1ccc(OCCN3CCCCC3)cc1)c1c-2ccc2cc(O)ccc12 | 280 | inactive |  |  |  |  |
| O=C(c1ccc(OCCN2CCCCC2)cc1)c1c(-c2ccc(O)cc2)sc2cc(O)ccc12 [RALOXIFENE] |  |  | 40 | 2.4 | 2.4 | 2 |
